Laboratory results taken from paper PMC10482975 (Nature Communications, 2023).
Where a chain is given by its changes, count along the chain named.

How the values were obtained:
M3 mAChR WT = target: T1, M3 mAChR WT (Homo sapiens, UniProt P20309); test: [3H]-NMS radioligand dissociation binding, M3 mAChR WT; conditions: M3 mAChR
T1 construct: expressed in transfected cells
Description: (§1) Flp-In Chinese hamster ovary (CHO) (Thermo Fisher Scientific) cells stably expressing mAChR WTs or mutant constructs were cultured in Dulbecco’s modified Eagle’s medium (DMEM, Invitrogen) containing 5% foetal bovine serum (FBS; ThermoTrace) and […] of hygromycin (Roche) in a humidified incubator (37 °C, 5% CO2). Upon reaching confluence, media was removed, cells were washed with phosphate buffered saline (PBS) and harvested from tissue culture flasks using versene (PBS with 0.2 g EDTA). Cells were then pelleted through centrifugation at 350 × g for three minutes followed by resuspension in DMEM + 5% FBS. Cells were then either plated for an assay or reseeded into a tissue culture flask.

M4 mAChR WT = target: T2, M4 mAChR WT (Homo sapiens, UniProt P08173); test: [3H]-NMS radioligand dissociation binding, M4 mAChR WT; conditions: for [3H]-NMS binding remaining (0 min = 100), MEAN: M4 mAChR
T2 construct: expressed in transfected cells
T2 sequence (P08173 1-479): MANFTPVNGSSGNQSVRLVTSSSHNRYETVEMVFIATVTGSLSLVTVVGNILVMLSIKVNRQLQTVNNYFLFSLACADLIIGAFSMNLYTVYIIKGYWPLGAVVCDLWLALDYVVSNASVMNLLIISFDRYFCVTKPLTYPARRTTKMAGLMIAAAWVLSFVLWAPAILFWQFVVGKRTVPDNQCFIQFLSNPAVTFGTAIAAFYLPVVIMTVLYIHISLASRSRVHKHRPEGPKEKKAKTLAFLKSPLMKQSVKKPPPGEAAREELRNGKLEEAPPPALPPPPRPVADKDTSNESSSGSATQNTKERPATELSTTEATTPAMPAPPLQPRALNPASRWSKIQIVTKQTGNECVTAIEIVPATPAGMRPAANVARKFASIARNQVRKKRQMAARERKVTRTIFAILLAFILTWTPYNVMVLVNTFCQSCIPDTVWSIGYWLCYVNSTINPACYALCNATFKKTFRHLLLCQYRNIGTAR
Description: as §1

M5 mAChR WT = target: T3, M5 mAChR WT (Homo sapiens, UniProt P08912); test: [3H]-NMS radioligand dissociation binding, M5 mAChR WT
T3 construct: expressed in transfected cells
T3 sequence (P08912 1-532): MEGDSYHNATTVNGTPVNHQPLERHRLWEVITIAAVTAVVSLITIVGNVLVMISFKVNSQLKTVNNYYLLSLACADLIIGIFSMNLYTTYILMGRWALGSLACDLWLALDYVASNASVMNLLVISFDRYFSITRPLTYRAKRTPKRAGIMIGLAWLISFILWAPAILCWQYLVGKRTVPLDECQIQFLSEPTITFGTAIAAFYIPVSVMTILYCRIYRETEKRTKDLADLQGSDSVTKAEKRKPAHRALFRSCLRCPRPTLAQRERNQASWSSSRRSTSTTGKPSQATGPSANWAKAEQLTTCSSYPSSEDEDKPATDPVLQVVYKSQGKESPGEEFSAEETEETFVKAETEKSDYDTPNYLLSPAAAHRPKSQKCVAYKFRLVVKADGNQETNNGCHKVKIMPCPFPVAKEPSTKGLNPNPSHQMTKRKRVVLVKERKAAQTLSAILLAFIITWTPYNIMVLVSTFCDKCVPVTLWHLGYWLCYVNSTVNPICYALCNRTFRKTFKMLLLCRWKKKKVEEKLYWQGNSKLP
Description: as §1

M4 mAChR F186A = target: T4, M4 mAChR F186A (Homo sapiens, UniProt P08173, F186A); test: [3H]-NMS radioligand dissociation binding, M4 mAChR F186A; conditions: for [3H]-NMS binding remaining (0 min = 100), MEAN: M4 F186A mAChR
T4 construct: expressed in transfected cells
T4 sequence (P08173 1-479 F186A): T2 sequence (P08173 1-479) with F186A
Description: as §1

[1] = 10uM Atr + 10 μM Iperoxo, 10 min
[2] = 10uM Atr + 10 μM Iperoxo, 15 min
[3] = 10uM Atr + 10 μM Iperoxo, 30 min
[4] = 10uM Atr + 10 μM Iperoxo, 90 min
[5] = 10uM Atr + 10 μM Iperoxo, 120 min
[6] = 10uM Atr + 10 μM Iperoxo, 210 min
[7] = 10uM Atr + 10 μM Iperoxo, 180 min
[8] = 10uM Atr + 10 μM Iperoxo, 300 min
[9] = 10uM Atr + 30uM LY2033, 120 min
[10] = 10uM Atr + 30uM LY2033, 210 min
[11] = 10uM Atr + 30uM LY2033, 180 min
[12] = 10uM Atr + 30uM LY2033, 300 min

T1 sequence (P20309 whole entry): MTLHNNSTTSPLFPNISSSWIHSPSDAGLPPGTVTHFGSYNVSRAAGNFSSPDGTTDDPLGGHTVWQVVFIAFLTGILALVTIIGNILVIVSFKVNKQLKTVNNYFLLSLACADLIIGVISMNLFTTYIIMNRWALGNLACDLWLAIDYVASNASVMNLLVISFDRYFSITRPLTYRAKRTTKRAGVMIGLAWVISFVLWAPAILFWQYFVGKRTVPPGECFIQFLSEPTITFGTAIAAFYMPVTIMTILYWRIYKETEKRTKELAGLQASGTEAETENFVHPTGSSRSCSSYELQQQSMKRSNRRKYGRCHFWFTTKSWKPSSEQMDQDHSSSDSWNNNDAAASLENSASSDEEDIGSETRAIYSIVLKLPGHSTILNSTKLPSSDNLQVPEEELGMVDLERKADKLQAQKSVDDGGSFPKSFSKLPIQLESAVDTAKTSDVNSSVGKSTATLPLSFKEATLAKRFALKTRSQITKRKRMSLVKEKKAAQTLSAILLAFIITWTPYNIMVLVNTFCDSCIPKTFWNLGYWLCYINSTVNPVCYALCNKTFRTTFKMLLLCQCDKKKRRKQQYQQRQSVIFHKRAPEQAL

Question: For `C[N+](C)(C)CC#CCOC1=NOCC1` [iperoxo], which “[3H]-NMS binding remaining (0 min = 100), MEAN” value (“[3H]-NMS binding remaining” for short) (M3 mAChR WT; [1]) is on record?
Answer: 100.4

Question: And the “[3H]-NMS binding remaining” value (M3 mAChR WT; [2])?
Answer: 96.8554

Question: What about the “[3H]-NMS binding remaining” value (M3 mAChR WT; [3]) of the same compound?
Answer: 79.7803

Question: What about the “[3H]-NMS binding remaining” value (M3 mAChR WT; [4]) of the same compound?
Answer: 45.8424

Question: What about the “[3H]-NMS binding remaining” value (M3 mAChR WT; [5]) of the same compound?
Answer: 38.0708

Question: What about the “[3H]-NMS binding remaining” value (M3 mAChR WT; [6]) of the same compound?
Answer: 19.3493

Question: What about the “[3H]-NMS binding remaining” value (M4 mAChR WT; [3]) of the same compound?
Answer: 88.7252

Question: What about the “[3H]-NMS binding remaining” value (M4 mAChR WT; [4]) of the same compound?
Answer: 52.6732

Question: And the “[3H]-NMS binding remaining” value (M4 mAChR WT; [7])?
Answer: 31.8571

Question: What about the “[3H]-NMS binding remaining” value (M4 mAChR WT; [8]) of the same compound?
Answer: 17.3639

Question: And the “effect on [3H]-NMS dissociation (in words)” value (M4 mAChR WT; wild-type M4 mAChR, increasing concentrations of xanomeline, saturating concentration of iperoxo)?
Answer: had no effect

Question: And the “[3H]-NMS binding remaining” value (M5 mAChR WT; [1])?
Answer: 98.7473

Question: What about the “[3H]-NMS binding remaining” value (M5 mAChR WT; [2]) of the same compound?
Answer: 104.707

Question: What about the “[3H]-NMS binding remaining” value (M5 mAChR WT; [3]) of the same compound?
Answer: 92.7543

Question: What about the “[3H]-NMS binding remaining” value (M5 mAChR WT; [4]) of the same compound?
Answer: 56.424

Question: And the “[3H]-NMS binding remaining” value (M5 mAChR WT; [5])?
Answer: 46.6348

Question: What about the “[3H]-NMS binding remaining” value (M5 mAChR WT; [6]) of the same compound?
Answer: 27.5139

Question: What about the “[3H]-NMS binding remaining” value (M4 mAChR F186A; [3]) of the same compound?
Answer: 78.4972

Question: What about the “[3H]-NMS binding remaining” value (M4 mAChR F186A; [4]) of the same compound?
Answer: 56.5181

Question: And the “[3H]-NMS binding remaining” value (M4 mAChR F186A; [7])?
Answer: 43.1916

Question: And the “[3H]-NMS binding remaining” value (M4 mAChR F186A; [8])?
Answer: 30.9448

Question: With `COc1nc2sc(C(=O)NC3CC3)c(N)c2c(C)c1Cl` [LY2033298] as the compound, how does the “[3H]-NMS binding remaining” value (M3 mAChR WT; 10uM Atr + 30uM LY2033, 10 min) read?
Answer: 96.1336

Question: And the “[3H]-NMS binding remaining” value (M3 mAChR WT; 10uM Atr + 30uM LY2033, 15 min)?
Answer: 101.345

Question: And the “[3H]-NMS binding remaining” value (M3 mAChR WT; 10uM Atr + 30uM LY2033, 30 min)?
Answer: 103.79

Question: What about the “[3H]-NMS binding remaining” value (M3 mAChR WT; 10uM Atr + 30uM LY2033, 90 min) of the same compound?
Answer: 88.3999

Question: And the “[3H]-NMS binding remaining” value (M3 mAChR WT; [9])?
Answer: 77.6461

Question: What about the “[3H]-NMS binding remaining” value (M3 mAChR WT; [10]) of the same compound?
Answer: 65.167

Question: And the “[3H]-NMS binding remaining” value (M4 mAChR WT; 10uM Atr + 10uM LY2033, 30 min)?
Answer: 112.685

Question: And the “[3H]-NMS binding remaining” value (M4 mAChR WT; 10uM Atr + 10uM LY2033, 60 min)?
Answer: 100.725

Question: What about the “[3H]-NMS binding remaining” value (M4 mAChR WT; 10uM Atr + 10uM LY2033, 90 min) of the same compound?
Answer: 100.81

Question: What about the “[3H]-NMS binding remaining” value (M4 mAChR WT; 10uM Atr + 10uM LY2033, 180 min) of the same compound?
Answer: 78.3598

Question: What about the “[3H]-NMS binding remaining” value (M4 mAChR WT; 10uM Atr + 10uM LY2033, 300 min) of the same compound?
Answer: 57.1596

Question: What about the “[3H]-NMS binding remaining” value (M4 mAChR WT; 10uM Atr + 30uM LY2033, 30 min) of the same compound?
Answer: 97.9955

Question: And the “[3H]-NMS binding remaining” value (M4 mAChR WT; 10uM Atr + 30uM LY2033, 90 min)?
Answer: 92.0634

Question: And the “[3H]-NMS binding remaining” value (M4 mAChR WT; [11])?
Answer: 80.808

Question: And the “[3H]-NMS binding remaining” value (M4 mAChR WT; [12])?
Answer: 69.858

Question: What about the “[3H]-NMS binding remaining” value (M5 mAChR WT; 10uM Atr + 30uM LY2033, 10 min) of the same compound?
Answer: 102.761

Question: What about the “[3H]-NMS binding remaining” value (M5 mAChR WT; 10uM Atr + 30uM LY2033, 15 min) of the same compound?
Answer: 100.045

Question: And the “[3H]-NMS binding remaining” value (M5 mAChR WT; 10uM Atr + 30uM LY2033, 30 min)?
Answer: 98.0655

Question: And the “[3H]-NMS binding remaining” value (M5 mAChR WT; 10uM Atr + 30uM LY2033, 90 min)?
Answer: 75.4577

Question: What about the “[3H]-NMS binding remaining” value (M5 mAChR WT; [9]) of the same compound?
Answer: 66.5441

Question: What about the “[3H]-NMS binding remaining” value (M5 mAChR WT; [10]) of the same compound?
Answer: 53.7527

Question: And the “[3H]-NMS binding remaining” value (M4 mAChR F186A; 10uM Atr + 30uM LY2033, 30 min)?
Answer: 80.3007

Question: What about the “[3H]-NMS binding remaining” value (M4 mAChR F186A; 10uM Atr + 30uM LY2033, 90 min) of the same compound?
Answer: 48.89

Question: And the “[3H]-NMS binding remaining” value (M4 mAChR F186A; [11])?
Answer: 55.5733

Question: And the “[3H]-NMS binding remaining” value (M4 mAChR F186A; [12])?
Answer: 28.0247

Question: What about the “effect on [3H]-NMS dissociation (in words)” value (M4 mAChR F186A; M4 mAChR F186A mutant) of the same compound?
Answer: a similar effect was observed
